Results reported in ChEMBL document CHEMBL1201862, “PubChem BioAssay data set” (2004).
The source made the active and inactive calls.

Columns and labels:
[1] = biological target: ADP-ribosylation factor GTPase-activating protein 1 (Rattus norvegicus, UniProt Q62848); assay: Fluorescence polarization-based biochemical high throughput dose response screening assay to identify inhibitors of ADP-ribosylation factor GTPase activating protein 1 (ARFGAP1).; type: functional
[2] = biological target: T1, Orexin/Hypocretin receptor type 1 (Homo sapiens, UniProt O43613); assay: (§1) Fluorescence-based cell-based high throughput dose response assay for antagonists of the orexin 1 receptor (OX1R; HCRTR1). [Related pubchem assays (depositor defined):AID434989, AID435008, AID463079, AID485270, AID492963, AID492964, AID492965, AID493232, AID504717, AID504718]; type: functional
T1 sequence (O43613 whole entry): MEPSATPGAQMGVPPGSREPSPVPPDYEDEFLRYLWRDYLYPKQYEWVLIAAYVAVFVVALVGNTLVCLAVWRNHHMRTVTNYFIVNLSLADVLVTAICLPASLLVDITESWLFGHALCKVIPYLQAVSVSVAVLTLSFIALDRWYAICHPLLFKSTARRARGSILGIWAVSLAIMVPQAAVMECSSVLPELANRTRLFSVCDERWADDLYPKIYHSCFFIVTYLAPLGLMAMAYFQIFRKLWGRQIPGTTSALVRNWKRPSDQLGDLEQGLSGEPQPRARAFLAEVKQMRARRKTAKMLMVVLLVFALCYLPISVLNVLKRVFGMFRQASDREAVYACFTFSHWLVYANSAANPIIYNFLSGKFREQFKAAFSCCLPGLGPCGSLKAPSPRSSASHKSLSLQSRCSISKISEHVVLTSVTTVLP

[3] = biological target: T2, Orexin receptor type 2 (Homo sapiens, UniProt O43614); assay: Counterscreen assay for antagonists of the orexin 1 receptor (OX1R; HCRTR1): Fluorescence-based cell-based dose response assay for antagonists of the orexin 2 receptor (OX2R; HCRTR2), run by assay provider.; type: functional
T2 sequence (O43614 whole entry): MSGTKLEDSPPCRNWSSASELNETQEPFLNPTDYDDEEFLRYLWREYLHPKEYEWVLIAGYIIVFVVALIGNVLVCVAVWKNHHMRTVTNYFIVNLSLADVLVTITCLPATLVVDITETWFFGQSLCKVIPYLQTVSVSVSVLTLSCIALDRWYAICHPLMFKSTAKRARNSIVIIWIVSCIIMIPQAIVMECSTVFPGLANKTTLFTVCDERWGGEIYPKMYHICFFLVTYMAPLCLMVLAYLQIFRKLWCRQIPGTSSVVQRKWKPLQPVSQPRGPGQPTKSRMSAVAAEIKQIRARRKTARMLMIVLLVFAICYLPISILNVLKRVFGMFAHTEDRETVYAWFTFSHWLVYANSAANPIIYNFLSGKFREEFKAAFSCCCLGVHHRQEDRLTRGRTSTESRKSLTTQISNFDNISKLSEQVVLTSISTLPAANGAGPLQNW

[4] = biological target: T1, Orexin/Hypocretin receptor type 1; assay: as §1, with “Homogeneous Time Resolved Fluorescence (HTRF)-based” for “Fluorescence-based”; type: functional
[5] = biological target: T2, Orexin receptor type 2; assay: Counterscreen assay for antagonists of the orexin 1 receptor (OX1R; HCRTR1): Homogeneous Time Resolved Fluorescence (HTRF)-based cell-based dose response assay for antagonists of the orexin 2 receptor (OX2R; HCRTR2), run by assay provider.; type: functional
[6] = (§2) Counterscreen for antagonists of the orexin 1 receptor (OX1R; HCRTR1): Fluorescence-based cell-based high throughput dose response assay to identify antagonists of the parental CHO cell line. [Related pubchem assays (depositor defined):AID434989, AID435008, AID463079, AID485270, AID492963, AID492964, AID492965, AID493232, AID504699, AID504701]; type: functional
[7] = system: CHO-K1; assay: as §2, with “Homogeneous time resolved fluorescence (HTRF)-based” for “Fluorescence-based”, “cell-based” for “cell-based high throughput”, “CHO-K1” for “CHO”; type: functional; conditions: Cricetulus griseus;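 further: potency for inhibition of ATP-stimulated IP1 production as antagonists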
[8] = HEp-2 cell cytotoxicity, dose response, cytotoxicity control for RSV inhibitor project, HTS (AID 2410); type: functional; conditions: human respiratory syncytial virus
[9] = Luminescence Cell-Based Dose Retest to Confirm Inhibitors of Cancer Stem Cells. [Related pubchem assays (depositor defined):AID2717, AID2721]; type: functional; conditions: Homo sapiens
[10] = inhibitors of intracellular T. cruzi replication, confirmation, NIH3T3 host cells, beta-gal luminescence (AID 2044); type: functional, cell-based;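 further: intracellular parasites grown in NIH/3T3 mouse fibroblasts as host cells; luminescent beta-galactosidase reporter signal from transgenic T. cruzi replicating inside host cells; inhibitors lower the luminescence signal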
[11] = cytotoxicity toward NIH3T3 fibroblasts, dose response, counter-screen, cell-based, ATP luminescence, mouse fibroblasts (AID 2010); type: functional;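 further: cells exposed to compound for about 90 hours before reading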
[12] = biological target: T3, Heat shock factor protein 1 (Mus musculus, UniProt P38532); assay: inhibition of MG132-induced HSE-luciferase signal, confirmation, cell-based, NIH3T3, luminescence, dose retest (AID 2382); type: functional;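 further: NIH3T3 fibroblasts with HSF1-driven luciferase reporter stressed by proteasome inhibitor MG132; luminescence from HSF1-driven luciferase expression after 8 hours of MG132 stress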
T3 sequence (P38532 whole entry): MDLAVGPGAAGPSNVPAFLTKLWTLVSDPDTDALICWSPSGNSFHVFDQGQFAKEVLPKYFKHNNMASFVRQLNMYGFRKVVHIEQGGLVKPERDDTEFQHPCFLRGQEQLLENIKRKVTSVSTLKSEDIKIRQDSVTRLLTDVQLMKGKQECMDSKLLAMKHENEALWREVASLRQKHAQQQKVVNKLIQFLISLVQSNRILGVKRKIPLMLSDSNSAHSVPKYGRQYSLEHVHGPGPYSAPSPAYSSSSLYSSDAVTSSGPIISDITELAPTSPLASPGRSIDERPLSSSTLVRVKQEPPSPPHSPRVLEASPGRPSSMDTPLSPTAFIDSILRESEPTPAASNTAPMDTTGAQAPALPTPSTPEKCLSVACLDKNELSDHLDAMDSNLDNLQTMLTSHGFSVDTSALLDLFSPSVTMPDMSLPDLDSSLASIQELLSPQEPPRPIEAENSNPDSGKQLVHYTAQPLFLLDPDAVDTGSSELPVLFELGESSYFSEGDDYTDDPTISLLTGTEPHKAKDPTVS

[13] = biological target: Mitochondrial peptide methionine sulfoxide reductase (Bos taurus, UniProt P54149); type: functional;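 further: absorbance read-out, biochemical high-throughput dose-response screen for MsrA inhibitors, confirmatory; recombinant bovine MsrA coupled to E. coli TrxB with NADPH and selenocystamine; potency is for inhibitors of MsrA activity on DMSO substrate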
Chain of Mitochondrial peptide methionine sulfoxide reductase (P54149 whole entry): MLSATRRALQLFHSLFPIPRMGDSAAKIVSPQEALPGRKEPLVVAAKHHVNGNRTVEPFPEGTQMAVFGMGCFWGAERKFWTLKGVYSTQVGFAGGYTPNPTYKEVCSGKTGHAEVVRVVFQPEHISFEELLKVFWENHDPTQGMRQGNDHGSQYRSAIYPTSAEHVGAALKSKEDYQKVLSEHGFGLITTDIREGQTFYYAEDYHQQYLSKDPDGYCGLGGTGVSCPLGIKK

[14] = biological target: Steroidogenic factor 1 (Homo sapiens, UniProt Q13285); assay: Counterscreen for inverse agonists of the liver receptor homolog-1 (LRH-1; NR5A2): Luminescence-based cell-based high throughput dose response assay to identify inverse agonists of the Steroidogenic Factor 1 Nuclear Receptor (SF1; NR5A1).; type: functional
Chain of Steroidogenic factor 1 (Q13285 whole entry): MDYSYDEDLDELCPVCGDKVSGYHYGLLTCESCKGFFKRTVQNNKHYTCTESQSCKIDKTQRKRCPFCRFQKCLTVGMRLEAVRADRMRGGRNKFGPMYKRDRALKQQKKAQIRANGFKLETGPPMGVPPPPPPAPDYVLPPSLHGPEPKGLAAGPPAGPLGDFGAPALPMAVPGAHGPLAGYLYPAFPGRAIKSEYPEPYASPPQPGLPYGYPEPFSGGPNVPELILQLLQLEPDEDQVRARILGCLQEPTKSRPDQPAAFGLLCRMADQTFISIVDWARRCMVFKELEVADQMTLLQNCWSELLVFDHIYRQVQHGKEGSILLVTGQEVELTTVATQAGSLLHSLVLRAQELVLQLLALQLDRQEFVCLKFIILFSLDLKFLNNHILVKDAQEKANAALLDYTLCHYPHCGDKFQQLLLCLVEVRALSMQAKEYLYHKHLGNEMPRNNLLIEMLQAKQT

[15] = StAR promoter reporter inhibition counter-screen, dose response, counter-screen for LRH-1 inverse agonist project, cell-based, luminescence, luciferase reporter (AID 651969); type: functional
[16] = biological target: Nuclear receptor subfamily 5 group A member 2 (Homo sapiens, UniProt O00482); type: functional, cell-based;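 further: HEK293T cells transfected with LRH-1 and a StAR promoter luciferase reporter; potency for inhibitors that lower LRH-1 driven reporter light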
Chain of Nuclear receptor subfamily 5 group A member 2 (O00482 whole entry): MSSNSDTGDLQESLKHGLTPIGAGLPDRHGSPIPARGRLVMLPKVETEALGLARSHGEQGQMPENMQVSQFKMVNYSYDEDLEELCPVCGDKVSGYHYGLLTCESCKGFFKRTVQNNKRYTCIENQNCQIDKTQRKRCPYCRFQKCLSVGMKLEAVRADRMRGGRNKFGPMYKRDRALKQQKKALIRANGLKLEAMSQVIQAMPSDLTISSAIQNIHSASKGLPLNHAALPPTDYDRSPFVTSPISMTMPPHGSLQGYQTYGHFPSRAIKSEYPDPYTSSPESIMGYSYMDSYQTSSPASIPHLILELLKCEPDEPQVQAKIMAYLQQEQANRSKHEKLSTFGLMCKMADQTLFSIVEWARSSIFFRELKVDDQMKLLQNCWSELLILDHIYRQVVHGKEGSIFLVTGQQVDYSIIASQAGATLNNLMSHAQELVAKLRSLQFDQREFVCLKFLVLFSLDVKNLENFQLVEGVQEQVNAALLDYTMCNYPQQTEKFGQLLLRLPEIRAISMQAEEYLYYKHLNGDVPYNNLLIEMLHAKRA

[17] = biological target: T4, Probable nicotinate-nucleotide adenylyltransferase (Staphylococcus aureus (strain N315), UniProt P65502); type: functional, Staphylococcus aureus subsp. aureus N315; conditions: read-out: IC50_Mean;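 on IC50 Mean: confirmatory dose-response retesting of NadD inhibitor hits first found in an ultra-high-throughput screen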
T4 sequence (P65502 whole entry): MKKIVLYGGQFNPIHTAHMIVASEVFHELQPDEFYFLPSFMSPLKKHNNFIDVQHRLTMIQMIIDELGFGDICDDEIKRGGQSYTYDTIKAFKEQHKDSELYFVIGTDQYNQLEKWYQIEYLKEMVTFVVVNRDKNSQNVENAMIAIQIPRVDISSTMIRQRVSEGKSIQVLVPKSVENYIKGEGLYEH

[18] = biological target: T4, Probable nicotinate-nucleotide adenylyltransferase; type: functional, Staphylococcus aureus subsp. aureus N315
[19] = biological target: Ras and Rab interactor 1/Tyrosine-protein kinase ABL1 (Homo sapiens, UniProt P00519+Q13671); type: functional;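 further: biochemical TR-FRET dose-response test measuring inhibition of binding between Rin1 and Abl proteins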
Chain of Ras and Rab interactor 1/Tyrosine-protein kinase ABL1 (P00519 whole entry): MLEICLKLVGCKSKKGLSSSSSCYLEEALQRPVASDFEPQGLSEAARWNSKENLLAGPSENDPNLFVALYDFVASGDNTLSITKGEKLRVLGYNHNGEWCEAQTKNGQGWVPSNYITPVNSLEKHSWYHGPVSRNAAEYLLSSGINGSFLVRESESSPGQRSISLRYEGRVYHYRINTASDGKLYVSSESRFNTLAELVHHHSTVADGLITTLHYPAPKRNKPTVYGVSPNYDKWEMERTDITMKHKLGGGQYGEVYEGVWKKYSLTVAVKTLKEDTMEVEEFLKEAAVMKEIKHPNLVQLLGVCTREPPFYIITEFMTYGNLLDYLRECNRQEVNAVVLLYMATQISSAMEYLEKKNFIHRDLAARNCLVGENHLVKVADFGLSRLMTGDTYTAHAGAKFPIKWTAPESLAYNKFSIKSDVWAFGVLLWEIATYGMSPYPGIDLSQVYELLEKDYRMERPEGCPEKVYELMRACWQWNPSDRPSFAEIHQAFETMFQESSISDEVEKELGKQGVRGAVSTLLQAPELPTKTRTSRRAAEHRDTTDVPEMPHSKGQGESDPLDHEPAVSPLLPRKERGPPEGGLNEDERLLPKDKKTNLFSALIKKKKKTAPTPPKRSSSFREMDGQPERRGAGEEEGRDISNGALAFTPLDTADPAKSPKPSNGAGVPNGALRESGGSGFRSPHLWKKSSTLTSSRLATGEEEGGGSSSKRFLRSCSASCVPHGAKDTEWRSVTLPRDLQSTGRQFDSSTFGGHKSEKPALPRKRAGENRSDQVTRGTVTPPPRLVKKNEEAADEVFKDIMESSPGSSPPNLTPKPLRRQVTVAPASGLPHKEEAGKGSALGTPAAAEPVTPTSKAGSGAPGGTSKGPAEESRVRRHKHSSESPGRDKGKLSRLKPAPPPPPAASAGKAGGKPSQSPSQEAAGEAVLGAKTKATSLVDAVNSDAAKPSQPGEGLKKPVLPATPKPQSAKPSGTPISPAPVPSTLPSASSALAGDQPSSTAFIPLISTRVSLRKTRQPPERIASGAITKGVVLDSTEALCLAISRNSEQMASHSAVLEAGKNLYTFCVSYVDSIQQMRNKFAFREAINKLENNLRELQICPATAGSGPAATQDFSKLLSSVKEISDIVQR
Chain of Ras and Rab interactor 1/Tyrosine-protein kinase ABL1 (Q13671 whole entry): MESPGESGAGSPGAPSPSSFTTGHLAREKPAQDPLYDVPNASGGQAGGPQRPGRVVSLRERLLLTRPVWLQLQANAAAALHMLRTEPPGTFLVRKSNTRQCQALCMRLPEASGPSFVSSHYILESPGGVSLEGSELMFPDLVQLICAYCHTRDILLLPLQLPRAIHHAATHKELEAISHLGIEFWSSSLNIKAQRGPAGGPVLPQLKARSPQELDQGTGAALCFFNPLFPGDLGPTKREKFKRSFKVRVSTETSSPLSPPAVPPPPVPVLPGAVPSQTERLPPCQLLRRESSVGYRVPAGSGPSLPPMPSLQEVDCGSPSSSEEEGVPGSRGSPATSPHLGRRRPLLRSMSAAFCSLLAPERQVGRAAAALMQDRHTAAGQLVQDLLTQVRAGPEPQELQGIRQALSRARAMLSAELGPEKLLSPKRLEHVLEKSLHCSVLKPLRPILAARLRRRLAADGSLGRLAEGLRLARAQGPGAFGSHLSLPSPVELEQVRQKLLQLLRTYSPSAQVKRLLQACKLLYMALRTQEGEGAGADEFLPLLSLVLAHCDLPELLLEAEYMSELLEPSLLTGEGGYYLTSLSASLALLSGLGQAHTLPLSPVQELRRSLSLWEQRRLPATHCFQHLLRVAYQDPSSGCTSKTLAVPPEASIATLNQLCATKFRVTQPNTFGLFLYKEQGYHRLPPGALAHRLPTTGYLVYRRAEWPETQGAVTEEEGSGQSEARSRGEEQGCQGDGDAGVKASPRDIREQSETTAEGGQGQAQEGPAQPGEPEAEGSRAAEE

[20] = biological target: Cytochrome P450 2C9 (Homo sapiens, UniProt P11712)
[21] = biological target: Low molecular weight phosphotyrosine protein phosphatase (Homo sapiens, UniProt P24666); type: functional; conditions: read-out: IC50_Mean;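 further: Dose-response confirmation assay measuring inhibition of LMPTP enzyme activity by fluorescence intensity read-out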
Chain of Low molecular weight phosphotyrosine protein phosphatase (P24666 whole entry, the tested form may be a part): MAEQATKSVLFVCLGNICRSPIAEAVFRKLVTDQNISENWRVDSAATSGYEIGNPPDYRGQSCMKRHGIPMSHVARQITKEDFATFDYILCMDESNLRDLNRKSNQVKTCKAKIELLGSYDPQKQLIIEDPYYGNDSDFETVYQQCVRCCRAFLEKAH

[22] = biological target: Photoreceptor-specific nuclear receptor (Homo sapiens, UniProt Q9Y5X4); type: functional, cell-based;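 further: CHO-S cells with Gal4-NCOR and VP16-NR2E3 two-hybrid luciferase reporter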
[23] = biological target: Peroxisome proliferator-activated receptor gamma/Nuclear receptor coactivator 3 (Homo sapiens, UniProt P37231); assay: (§3) TR-FRET dose response biochemical High Throughput Screening assay for agonists of the steroid receptor coactivator 3 (SRC-3) recruitment by the peroxisome proliferator-activated receptor gamma (PPAR gamma): non-selective agonists. [Related pubchem assays: 1301 (Confirmation screen.), 1048 (Primary screen.)]; type: functional
[24] = biological target: Mitogen-activated protein kinase 10 (Homo sapiens, UniProt P53779); assay: Dose response biochemical screening assay for inhibitors of c-Jun N-Terminal Kinase 3 (JNK3). [Related pubchem assays: 746 ]
[25] = biological target: Peroxisome proliferator-activated receptor gamma/Nuclear receptor coactivator 1 (Homo sapiens, UniProt P37231); assay: as §3, with “1 (SRC-1)” for “3 (SRC-3)”, “assays (depositor defined):AID1300, AID1808, AID504735, AID631]” for “assays: 1301 (Confirmation screen.), 1048 (Primary screen.)]”; type: protein assay
[26] = biological target: Peroxisome proliferator-activated receptor gamma/Nuclear receptor coactivator 2 (Homo sapiens, UniProt P37231); assay: TR-FRET dose response biochemical High Throughput Screening assay for agonists of the steroid receptor coactivator 2 (SRC-2) recruitment by the peroxisome proliferator-activated receptor gamma (PPAR gamma): non-selective agonists. [Related pubchem assays: 1297, 1032 ]; type: functional
[27] = HepG2 cell cytotoxicity, dose response, cytotoxicity control for Shn3 inhibitor project, CellTiter-Glo, cherry-picked (AID 624134); type: functional, cell-based
[28] = biological target: Protein Wnt-3a (Mus musculus, UniProt P27467); assay: Wnt3a-driven reporter signaling inhibition, dose response, selectivity assay for Gli-SUFU antagonist project, Wnt-LIGHT cells, luminescence (AID 651570); type: functional; conditions: read-out: IC50_Mean;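 further: Wnt-LIGHT reporter cells stimulated with conditioned medium from Wnt3a-producing cells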
Chain of Protein Wnt-3a (P27467 whole entry): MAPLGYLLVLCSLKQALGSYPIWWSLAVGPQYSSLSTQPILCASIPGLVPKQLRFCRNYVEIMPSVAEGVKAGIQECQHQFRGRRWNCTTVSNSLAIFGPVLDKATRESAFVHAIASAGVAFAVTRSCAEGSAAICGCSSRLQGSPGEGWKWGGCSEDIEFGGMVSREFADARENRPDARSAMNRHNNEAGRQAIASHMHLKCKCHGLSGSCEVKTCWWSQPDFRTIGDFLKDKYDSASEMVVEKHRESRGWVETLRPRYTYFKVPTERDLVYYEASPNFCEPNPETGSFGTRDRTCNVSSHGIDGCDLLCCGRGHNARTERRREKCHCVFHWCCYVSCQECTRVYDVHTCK

[29] = system: INS1; assay: beta cell apoptosis inhibitors, cytokine rescue, dose response, luminescence, retest (AID 449756); type: functional, cell-based; conditions: Rattus norvegicus;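 further: cell death triggered by IL-1 beta plus TNF-alpha plus IFN-gamma mixture; protective hits raise ATP signal compared with cytokine alone wells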
[30] = Shn3 3'UTR reporter inhibitors, dose response, cell-based, Clone20 osteoblasts, firefly luciferase, cherry-picked (AID 624132); type: functional;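 further: firefly luciferase luminescence from reporter carrying the Shn3 3'UTR in osteoblasts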
[31] = biological target: Hepatocyte nuclear factor 4-alpha (Homo sapiens, UniProt P41235); type: functional, cell-based;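 further: biochemical luminescence-based dose-response counterscreen measuring inhibition of HNF4 dimerization, run alongside a screen for blockers of ABHD5–perilipin-5 interaction; split luciferase complementation of HNF4 fusion proteins in cell lysate measuring dimerization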
Chain of Hepatocyte nuclear factor 4-alpha (P41235 whole entry, the tested form may be a part): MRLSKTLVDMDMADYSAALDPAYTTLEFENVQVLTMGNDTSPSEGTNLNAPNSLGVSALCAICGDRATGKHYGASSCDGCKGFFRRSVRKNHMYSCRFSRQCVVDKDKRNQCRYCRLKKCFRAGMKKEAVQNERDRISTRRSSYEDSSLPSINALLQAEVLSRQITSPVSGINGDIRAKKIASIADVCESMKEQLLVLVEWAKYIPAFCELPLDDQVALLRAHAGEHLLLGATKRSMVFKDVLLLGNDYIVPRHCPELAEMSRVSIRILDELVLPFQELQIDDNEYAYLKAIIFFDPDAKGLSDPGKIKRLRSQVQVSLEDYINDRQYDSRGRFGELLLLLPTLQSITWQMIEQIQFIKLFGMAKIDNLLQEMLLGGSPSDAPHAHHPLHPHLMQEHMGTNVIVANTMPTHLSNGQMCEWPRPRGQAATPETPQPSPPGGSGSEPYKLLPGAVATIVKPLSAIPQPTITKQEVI

Chain of ADP-ribosylation factor GTPase-activating protein 1 (Q62848 whole entry): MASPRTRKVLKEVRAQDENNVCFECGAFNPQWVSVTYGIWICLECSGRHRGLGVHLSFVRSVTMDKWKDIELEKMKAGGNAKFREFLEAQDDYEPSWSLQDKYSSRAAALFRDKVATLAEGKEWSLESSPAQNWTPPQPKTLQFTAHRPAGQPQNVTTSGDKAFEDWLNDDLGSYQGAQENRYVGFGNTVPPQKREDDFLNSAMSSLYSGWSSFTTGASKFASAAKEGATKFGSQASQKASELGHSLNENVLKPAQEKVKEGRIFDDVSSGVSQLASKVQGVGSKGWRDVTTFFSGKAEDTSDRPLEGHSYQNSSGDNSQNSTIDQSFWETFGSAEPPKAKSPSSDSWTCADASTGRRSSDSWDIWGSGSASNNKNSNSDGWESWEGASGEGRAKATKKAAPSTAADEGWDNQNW

## CCOc1ccc2oc(C(=O)OCC(=O)N3CCCC(C)C3)c(C)c2c1 (stereo not given)
[1]
  IC50: 69.8 µM (inactive)

## O=C(Nc1ccccc1)[C@@H]1CC=C[C@@H]2CCN(Cc3ccc(Cl)c(Cl)c3)C(=O)[C@@H]21
[2]
  IC50: 4.28 µM (active)
[3]
  IC50: > 88.8 µM (inactive)
[4]
  IC50: 0.484 µM (active)
[5]
  IC50: > 50 µM (inactive)
[6]
  IC50: > 49.7 µM (inactive)
[7]
  IC50: > 66.2 µM (inactive)

## CNC(=O)NC(=O)C(C)OC(=O)c1c2c(nc3ccccc13)/C(=C/c1cccs1)CC2 (stereo not given)
[8]
  CC50: > 50 µM (active)
[9]
  AC50: 2.41 µM (active)
[2]
  IC50: 5.01 µM (active)
[3]
  IC50: 8.7 µM (active)
[4]
  IC50: 4.12 µM (active)
[5]
  IC50: > 50 µM (inactive)
[6]
  IC50: > 49.7 µM (inactive)
[7]
  IC50: > 66.2 µM (inactive)

## COc1ccc(/C=C/c2nc(N)nc(-c3ccccc3O)n2)cc1OC
[10]
  EC50: 2.09 µM (active)
[8]
  CC50: > 50 µM (active)
[11]
  EC50: > 60 µM (inconclusive)
[2]
  IC50: 3.97 µM (active)
[3]
  IC50: 26.9 µM (inactive)
[4]
  IC50: 2.69 µM (active)
[5]
  IC50: > 50 µM (inactive)
[6]
  IC50: > 49.8 µM (inactive)
[7]
  IC50: > 66.3 µM (inactive)

## CC(/C=C/c1ccc2c(c1)OCO2)=N/NC(=O)c1ccncc1
[12]
  EC50: 35.5 µM (active)
[13]
  IC50: 51.7 µM (inactive)

## O=C(O)CC1SC(N/N=C/C=C/c2ccccc2)=NC1=O (stereo not given)
[13]
  IC50: 118 µM (inactive)

## COc1ccc(NC(=O)CSc2nc(O)c3c(C)cc(C)nc3n2)cc1
[14]
  IC50: 1.3 µM (active)
[15]
  IC50: 23.7 µM (inactive)
[16]
  IC50: 1.37 µM (active)

## COc1ccc(OC)c(/C=C/C(=O)OCC(=O)Nc2nnc(-c3ccccc3)o2)c1
[17]
  IC50: 42.5 µM (active)
[18]
  IC50: 9.28 µM (active)

## NC(=O)c1ccc(NC(=O)COC(=O)/C=C/c2cn(-c3ccccc3)nc2-c2cccnc2)cc1
[1]
  IC50: 57.4 µM (inactive)

## CCOC(=O)CCCCCC(=O)Nc1ccc2c(c1)C(=O)N([C@@H](C)CO)C[C@@H](C)[C@H](CN(C)C(=O)Nc1ccccc1)OCCCC[C@H](C)O2
[19]
  IC50: 17.3 µM (inactive)

## COc1ccc(NC(=O)COC(=O)c2c(-c3ccccc3)noc2C)cc1
[14]
  IC50: 1.43 µM (active)
[15]
  IC50: 35.9 µM (inactive)
[16]
  IC50: 5.15 µM (active)
[20]
  AC50: 20 µM (inconclusive)

## Cc1csc2nc(O)c(C(=O)NCc3ccc4c(c3)OCO4)c(=O)n12
[21]
  IC50: 80 µM (inactive)

## CN(Cc1cnccn1)C(=O)C1CCC(=O)N(CCc2ccccc2)C1 (stereo not given)
[19]
  IC50: 17.5 µM (inactive)

## Cc1ccnc(NC(=O)CSc2cc(=O)n(C)c3ccccc23)c1
[22]
  IC50: 0.664 µM (active)
[9]
  AC50: 1.03 µM (active)
[23]
  EC50: > 79.4 µM (not active)
[24]
  IC50: > 93.1 µM (not active)
[25]
  EC50: > 79.4 µM (inactive)
[26]
  EC50: > 79.4 µM (not active)

## O=C(N/N=C/c1ccc(Br)s1)c1ccc([N+](=O)[O-])cc1
[10]
  EC50: 3.76 µM (active)
[11]
  EC50: 8.96 µM (active)
[21]
  IC50: 9.73 µM (active)

## COc1ccc(NS(=O)(=O)c2ccc(N3CCOCC3)c(N)c2)cc1
[27]
  AC50: 3.99 µM (active)
[28]
  IC50: 1.16 µM (active)
[29]
  AC50: 2.94 µM (active)
[30]
  AC50: 1.08 µM (active)

## COc1ccc(NC(=O)C(c2ccc(OC)cc2)n2c(=O)c(-c3ccco3)nc3ccccc32)cc1 (stereo not given)
[31]
  IC50: 15.7 µM (inactive)

## CCOC(=O)c1sc2nc(CC(=O)OC)nc(NCc3ccc(Cl)cc3)c2c1C
[28]
  IC50: 3.96 µM (active)
